# Source: patent US20040253261A1, “Biological compositions and methods for treatment of pancreatic cancer” (priority 2003, published 2004)
# Like-named read-outs stand apart in the source and are kept apart here.
# Experiments:
# [1] = system: pancreatic cancer tumor cells; conditions: for Number of live animals remaining in the groups after 30 days of treatment: 30 mice per group
# Description: (§1) The survival time of mice after tumor injection and treatment was studied.
# (§2) The biological composition comprising 10^8 cells per ml of activated and conditioned yeast cells of the strain Saccharomyces cerevisiae Hansen strain IFFI 1413 was prepared by the methods described in Section 5.1 and subsections therein.
# The animals were prepared in a similar manner as described in Section 6.1.
# The mice injected with tumor cells were divided into 4 experimental groups of ten mice per group and one control group. The four experimental groups were triplicated (i.e., using a total of 120 mice in the experimental groups). In group 2AY, the mice received 0.3 ml of the biological composition once per day. In group 2NY, the mice received 0.3 ml of the untreated yeast cells once per day. In group 2VDS, the mice were injected intravenously with 3 mg of vindesine (VDS) per kg body weight once a week for four weeks. In group 2CK1, the mice received 0.3 ml of physiological saline once per day.
# (§3) The mice received the biological compositions, untreated yeast cells, VDS or saline on the same day as the tumor cells were transplanted. The mice in group 2CK2 also started receiving saline on the same day as the other four groups. The biological compositions, untreated yeast cells and saline were administered orally by a feeding tube and the VDS by intravenous injection for 30 consecutive days. The mice were observed over 6 months from the day of tumor inoculation and survival was recorded. The weight of the mice as well as the weight of the tumor were determined by standard techniques.
# [2] = system: mouse pancreatic cancer cell line MPC-83; conditions: for Number of live animals remaining in the groups after 30 days of treatment: 30 mice per group
# Description: as §1
# The biological composition comprising 10^8 per ml of activated and conditioned yeast cells of the strain Saccharomyces cerevisiae Hansen strain IFFI 1413 was prepared by the methods described in Section 5.1 and subsections therein.
# The animals were prepared in a similar manner as described in Section 8.1.
# The mice injected with tumor cells were kept for 5 days and were divided into 4 experimental groups of ten mice per group and one control group. The four experimental groups were triplicated (i.e., using a total of 120 mice in the experimental groups). In group 2AY, the mice received 0.5 ml of the biological composition once per day. In group 2NY, the mice received 0.5 ml of the untreated yeast cells once per day. In group 2MMC, the mice were injected intravenously with 1.5×10^5 units of mitomycin C (MMC) per kg body weight per day. In group 2CK1, the mice received 0.5 ml of physiological saline once per day.
# as §3, with “MMC” for “VDS”
# [3] = system: pancreatic cancer tumor cells; test: BALB/c mouse model of human pancreatic cancer, growth of tumors; conditions: tumor-bearing BALB/c mice, 30 consecutive days of treatment, sacrificed on 31st day from tumor inoculation
# Description: as §2
# The mice injected with tumor cells were divided into 4 experimental groups of ten mice per group and one control group. The four experimental groups were triplicated (i.e., using a total of 120 mice in the experimental groups).
# The mice in group CK2 also started receiving saline on the same day as the other four groups. The biological compositions, untreated yeast cells and saline were administered orally by a feeding tube and the VDS by intravenous injection for 30 consecutive days.
# [4] = system: mouse pancreatic cancer cell line MPC-83; test: kun ming mouse model of pancreatic cancer (MPC-83), growth of tumors; conditions: MPC-83-bearing kun ming mice, 30 consecutive days of treatment, sacrificed on 31st day from tumor inoculation
# Description: as §2
# The mice injected with tumor cells were kept for 5 days and were divided into 4 experimental groups of ten mice per group and one control group. The four experimental groups were triplicated (i.e., using a total of 120 mice in the experimental groups).
# The mice received the biological compositions, untreated yeast cells, MMC or saline on the same day as the tumor cells were transplanted. The mice in group CK2 also started receiving saline on the same day as the other four groups. The biological compositions, untreated yeast cells and saline were administered orally by a feeding tube and the MMC by intravenous injection for 30 consecutive days.
# [5] = 0 month after cessation of treatment
# [6] = 1 month after cessation of treatment
# [7] = 2 months after cessation of treatment
# [8] = 3 months after cessation of treatment
# [9] = 4 months after cessation of treatment
# [10] = 5 months after cessation of treatment
# [11] = 6 months after cessation of treatment
# [12] = mice that survived, observed over 6 months from tumor inoculation
smiles,measurement,setting,value
"CC[C@]1(O)C[C@@H]2CN(CCc3c([nH]c4ccccc34)[C@@](C(=O)OC)(c3cc4c(cc3OC)N(C)[C@H]3[C@@](O)(C(N)=O)[C@H](O)[C@]5(CC)C=CCN6CC[C@]43[C@@H]65)C2)C1 [Group 2VDS, vindesine]",Number of live animals remaining in the groups after 30 days of treatment,[1]; [5],30
same,Number of live animals remaining in the groups after 30 days of treatment,[1]; [6],30
same,Number of live animals remaining in the groups after 30 days of treatment,[1]; [7],27
same,Number of live animals remaining in the groups after 30 days of treatment,[1]; [8],27
same,Number of live animals remaining in the groups after 30 days of treatment,[1]; [9],11
same,Number of live animals remaining in the groups after 30 days of treatment,[1]; [10],0
same,Number of live animals remaining in the groups after 30 days of treatment,[1]; [11],0
same,survival time of mice bearing pancreatic cancer cells,"[1]; BALB/c mice, 30 days of treatment, from injection of tumor cells",all died after four months
same,mean weight of mice and standard deviation,[1]; [12],all animals dead
same,mean weight of tumor nodules and standard deviation,[1]; [12],all animals dead
"CO[C@@]12[C@H](COC(N)=O)C3=C(C(=O)C(C)=C(N)C3=O)N1C[C@@H]1N[C@@H]12 [Group MMC, mitomycin C]",Number of live animals remaining in the groups after 30 days of treatment,[2]; [5],30
same,Number of live animals remaining in the groups after 30 days of treatment,[2]; [6],27
same,Number of live animals remaining in the groups after 30 days of treatment,[2]; [7],21
same,Number of live animals remaining in the groups after 30 days of treatment,[2]; [8],7
same,Number of live animals remaining in the groups after 30 days of treatment,[2]; [9],0
same,Number of live animals remaining in the groups after 30 days of treatment,[2]; [10],0
same,Number of live animals remaining in the groups after 30 days of treatment,[2]; [11],0
same,survival time of mice bearing pancreatic cancer cells,"[2]; kun ming mice, 30 days of treatment, from injection of tumor cells",all died after four months
same,mean weight of mice and standard deviation,[2]; [12],all animals dead
same,mean weight of tumor nodules and standard deviation,[2]; [12],all animals dead
same,mean weight of mice and standard deviation,[3],18.9 ± 3.4 g
same,mean weight of tumor nodules and standard deviation,[3],1.37 ± 0.7 mg
same,mean weight of mice and standard deviation,[4],18.3 ± 1.5 g
same,mean weight of tumor nodules and standard deviation,[4],2.8 ± 1.2 g
